Converted amounts (≈) assume the structure as drawn. Where a SMILES comes first, the peptide text is derived from it. [ ]: non-standard residue; d: D form. The star is where a group is joined. NHCH2CH2OH = OCCN*; For = O=C*
Key:
[1] = Induction of bulk conductivity in soybean asolectin planar lipid bilayers assessed as residual conductance of black lipid bilayer at 250 nM at pH 8
Plasmodium falciparum [2] = assay: Antimalarial activity against chloroquine-resistant Plasmodium falciparum Dd2 after 72 hrs by NBT based LDH assay; format: functional; settings: Dd2, 72 h
[3] = Induction of bulk conductivity in soybean asolectin planar lipid bilayers assessed as residual conductance of black lipid bilayer at 0.5 nM at pH 8
[4] = Hemolytic activity against human erythrocytes at 20 to 140 uM after 30 mins; format: ADME, cell-based; settings: erythrocyte, 0.5 h
Escherichia coli = assay: Antimicrobial activity against Escherichia coli ATCC 25922 after 16 to 20 hrs by broth microdilution method; format: functional
Plasmodium falciparum [5] = assay: Antimalarial activity against chloroquine-sensitive Plasmodium falciparum 3D7 after 72 hrs by NBT based LDH assay; format: functional; settings: 3D7, 72 h
Pseudomonas aeruginosa = assay: Antimicrobial activity against Pseudomonas aeruginosa ATCC 27853 after 16 to 20 hrs by broth microdilution method; format: functional
[6] = Induction of bulk conductivity in soybean asolectin planar lipid bilayers assessed as residual conductance of black lipid bilayer at 1 nM at pH 8
Proteus mirabilis = assay: Antimicrobial activity against Proteus mirabilis ATCC 7002 after 16 to 20 hrs by broth microdilution method; format: functional
Enterococcus faecium = assay: Antimicrobial activity against Enterococcus faecium DSMZ 20477 after 16 to 20 hrs by broth microdilution method; format: functional
Enterococcus faecalis = assay: Antimicrobial activity against Enterococcus faecalis ATCC 29212 after 16 to 20 hrs by broth microdilution method; format: functional
Staphylococcus aureus = assay: Antimicrobial activity against methicillin-resistant Staphylococcus aureus ATCC 43300 after 16 to 20 hrs by broth microdilution method; format: functional
[7] = tested on: Staphylococcus epidermidis; assay: Antimicrobial activity against Staphylococcus epidermidis PP62A after 16 to 20 hrs by broth microdilution method; format: functional
Klebsiella pneumoniae = assay: Antimicrobial activity against Klebsiella pneumoniae ATCC 13883 after 16 to 20 hrs by broth microdilution method; format: functional
[8] = Induction of bulk conductivity in soybean asolectin planar lipid bilayers assessed as residual conductance of black lipid bilayer at 500 nM at pH 8
Streptococcus pneumoniae = assay: Antimicrobial activity against Streptococcus pneumoniae serotype 19A after 16 to 20 hrs by broth microdilution method; format: functional

CC(C)C[C@@H](NC(=O)[C@H](C)NC(=O)CNC(=O)[C@@H](NC(=O)CCSSCCC(=O)N[C@H](C(=O)NCC(=O)N[C@@H](C)C(=O)N[C@H](CC(C)C)C(=O)N[C@@H](C)C(=O)N[C@@H](C(=O)N[C@H](C(=O)N[C@@H](C(=O)N[C@@H](Cc1c[nH]c2ccccc12)C(=O)N[C@H](CC(C)C)C(=O)N[C@@H](Cc1c[nH]c2ccccc12)C(=O)N[C@H](CC(C)C)C(=O)N[C@@H](Cc1c[nH]c2ccccc12)C(=O)N[C@H](CC(C)C)C(=O)N[C@@H](Cc1c[nH]c2ccccc12)C(=O)NCCO)C(C)C)C(C)C)C(C)C)C(C)C)C(C)C)C(=O)N[C@@H](C)C(=O)N[C@@H](C(=O)N[C@H](C(=O)N[C@@H](C(=O)N[C@@H](Cc1c[nH]c2ccccc12)C(=O)N[C@H](CC(C)C)C(=O)N[C@@H](Cc1c[nH]c2ccccc12)C(=O)N[C@H](CC(C)C)C(=O)N[C@@H](Cc1c[nH]c2ccccc12)C(=O)N[C@H](CC(C)C)C(=O)N[C@@H](Cc1c[nH]c2ccccc12)C(=O)NCCO)C(C)C)C(C)C)C(C)C gave an Activity [1] of 66 uS, an IC50 (Plasmodium falciparum [2]) of 26.5 nM and an Activity [3] of 0.4 uS. The Activity [4] was “Non-Toxic”, the MIC (Escherichia coli) was greater than 64 µg/mL and the IC50 (Plasmodium falciparum [5]) was 31 nM.
In the case of CC(C)C[C@@H](NC(=O)[C@H](C)NC(=O)CNC(=O)[C@@H](NC(=O)CCS)C(C)C)C(=O)N[C@@H](C)C(=O)N[C@@H](C(=O)N[C@H](C(=O)N[C@@H](C(=O)N[C@@H](Cc1c[nH]c2ccccc12)C(=O)N[C@H](CC(C)C)C(=O)N[C@@H](Cc1c[nH]c2ccccc12)C(=O)N[C@H](CC(C)C)C(=O)N[C@@H](Cc1c[nH]c2ccccc12)C(=O)N[C@H](CC(C)C)C(=O)N[C@@H](Cc1c[nH]c2ccccc12)C(=O)NCCS)C(C)C)C(C)C)C(C)C, the MIC (Pseudomonas aeruginosa) is reported as greater than 64 µg/mL, the Activity [6] is reported as less than 0.3 uS and the MIC (Proteus mirabilis) is reported as greater than 64 µg/mL. It also gave an MIC (Enterococcus faecium) greater than 64 µg/mL, an MIC (Enterococcus faecalis) greater than 64 µg/mL and an MIC (Staphylococcus aureus) greater than 64 µg/mL. The MIC [7] was greater than 64 µg/mL, the MIC (Klebsiella pneumoniae) was greater than 64 µg/mL and the Activity [8] was 0.3 uS. It also gave an MIC (Escherichia coli) greater than 64 µg/mL and an MIC (Streptococcus pneumoniae) greater than 64 µg/mL.
For CC(C)C[C@@H](NC(=O)[C@H](C)NC(=O)CNC(=O)[C@@H](NC(=O)CCSSc1ccc([N+](=O)[O-])c(C(=O)O)c1)C(C)C)C(=O)N[C@@H](C)C(=O)N[C@@H](C(=O)N[C@H](C(=O)N[C@@H](C(=O)N[C@@H](Cc1c[nH]c2ccccc12)C(=O)N[C@H](CC(C)C)C(=O)N[C@@H](Cc1c[nH]c2ccccc12)C(=O)N[C@H](CC(C)C)C(=O)N[C@@H](Cc1c[nH]c2ccccc12)C(=O)N[C@H](CC(C)C)C(=O)N[C@@H](Cc1c[nH]c2ccccc12)C(=O)NCCO)C(C)C)C(C)C)C(C)C, the MIC (Pseudomonas aeruginosa) was greater than 64 µg/mL, the Activity [6] was 0.2 uS and the MIC (Proteus mirabilis) was greater than 64 µg/mL. For the same compound, the MIC (Enterococcus faecium) was 0.5 µg/mL (≈ 0.234 µM), the MIC (Enterococcus faecalis) was 1 µg/mL (≈ 0.467 µM) and the MIC (Staphylococcus aureus) was greater than 64 µg/mL. The MIC [7] was 1 µg/mL (≈ 0.467 µM), the MIC (Klebsiella pneumoniae) was greater than 64 µg/mL and the Activity [8] was 115 uS. For the same compound, the MIC (Escherichia coli) was greater than 64 µg/mL and the MIC (Streptococcus pneumoniae) was greater than 64 µg/mL.
CC(C)C[C@H]1NC(=O)[C@H](C)NC(=O)CNC(=O)[C@H](C(C)C)NC(=O)CCSSCCC(=O)N[C@@H](C(C)C)C(=O)NCC(=O)N[C@@H](C)C(=O)N[C@H](CC(C)C)C(=O)N[C@@H](C)C(=O)N[C@H](C(C)C)C(=O)N[C@@H](C(C)C)C(=O)N[C@H](C(C)C)C(=O)N[C@@H](Cc2c[nH]c3ccccc23)C(=O)N[C@H](CC(C)C)C(=O)N[C@@H](Cc2c[nH]c3ccccc23)C(=O)N[C@H](CC(C)C)C(=O)N[C@@H](Cc2c[nH]c3ccccc23)C(=O)N[C@H](CC(C)C)C(=O)N[C@@H](Cc2c[nH]c3ccccc23)C(=O)NCCSSCCNC(=O)[C@H](Cc2c[nH]c3ccccc23)NC(=O)[C@@H](CC(C)C)NC(=O)[C@H](Cc2c[nH]c3ccccc23)NC(=O)[C@@H](CC(C)C)NC(=O)[C@H](Cc2c[nH]c3ccccc23)NC(=O)[C@@H](CC(C)C)NC(=O)[C@H](Cc2c[nH]c3ccccc23)NC(=O)[C@@H](C(C)C)NC(=O)[C@H](C(C)C)NC(=O)[C@@H](C(C)C)NC(=O)[C@H](C)NC1=O showed an Activity [1] of less than 0.3 uS.
Compound CC(=O)N[C@H](C(=O)NCC(=O)N[C@@H](C)C(=O)N[C@H](CC(C)C)C(=O)N[C@@H](C)C(=O)N[C@@H](C(=O)N[C@H](C(=O)N[C@@H](C(=O)N[C@@H](Cc1c[nH]c2ccccc12)C(=O)N[C@H](CC(C)C)C(=O)N[C@@H](Cc1c[nH]c2ccccc12)C(=O)N[C@H](CC(C)C)C(=O)N[C@@H](Cc1c[nH]c2ccccc12)C(=O)N[C@H](CC(C)C)C(=O)N[C@@H](Cc1c[nH]c2ccccc12)C(=O)NCCS)C(C)C)C(C)C)C(C)C)C(C)C has an MIC (Pseudomonas aeruginosa) greater than 64 µg/mL, an MIC (Proteus mirabilis) greater than 64 µg/mL and an MIC (Enterococcus faecium) greater than 64 µg/mL. It also gave an MIC (Enterococcus faecalis) greater than 64 µg/mL, an MIC (Staphylococcus aureus) greater than 64 µg/mL and an MIC [7] greater than 64 µg/mL. For the same compound, the IC50 (Plasmodium falciparum [2]) was 8 nM, the MIC (Klebsiella pneumoniae) was greater than 64 µg/mL and the Activity [8] was 93 uS. It also gave an Activity [3] of 1.9 uS, an MIC (Escherichia coli) greater than 64 µg/mL and an IC50 (Plasmodium falciparum [5]) of 5.5 nM. For the same compound, the MIC (Streptococcus pneumoniae) was 0.05 µg/mL (≈ 0.0261 µM).
Compound CC(C)C[C@@H](NC(=O)[C@H](C)NC(=O)CNC(=O)[C@@H](NC=O)C(C)C)C(=O)N[C@@H](C)C(=O)N[C@@H](C(=O)N[C@H](C(=O)N[C@@H](C(=O)N[C@@H](Cc1c[nH]c2ccccc12)C(=O)N[C@H](CC(C)C)C(=O)N[C@@H](Cc1c[nH]c2ccccc12)C(=O)N[C@H](CC(C)C)C(=O)N[C@@H](Cc1c[nH]c2ccccc12)C(=O)N[C@H](CC(C)C)C(=O)N[C@@H](Cc1c[nH]c2ccccc12)C(=O)NCCO)C(C)C)C(C)C)C(C)C (For-VGA[dL]A[dV]V[dV]W[dL]W[dL]W[dL]W-NHCH2CH2OH) has an MIC (Pseudomonas aeruginosa) greater than 64 µg/mL, an MIC (Proteus mirabilis) greater than 64 µg/mL and an MIC (Enterococcus faecium) of 2 µg/mL (≈ 1.06 µM). It also gave an MIC (Enterococcus faecalis) of 1 µg/mL (≈ 0.531 µM), an MIC (Staphylococcus aureus) of 64 µg/mL (≈ 34 µM) and an MIC [7] of 0.5 µg/mL (≈ 0.266 µM). For the same compound, the IC50 (Plasmodium falciparum [2]) was 0.014 nM, the MIC (Klebsiella pneumoniae) was greater than 64 µg/mL and the Activity [3] was greater than 50 uS. For the same compound, the Activity [4] was “Toxic”, the MIC (Escherichia coli) was greater than 64 µg/mL and the IC50 (Plasmodium falciparum [5]) was 0.05 nM. The MIC (Streptococcus pneumoniae) was 0.05 µg/mL (≈ 0.0266 µM).
In the case of CC(C)C[C@H]1NC(=O)[C@H](C)NC(=O)CNC(=O)[C@H](C(C)C)NC(=O)CCSSCCNC(=O)[C@H](Cc2c[nH]c3ccccc23)NC(=O)[C@@H](CC(C)C)NC(=O)[C@H](Cc2c[nH]c3ccccc23)NC(=O)[C@@H](CC(C)C)NC(=O)[C@H](Cc2c[nH]c3ccccc23)NC(=O)[C@@H](CC(C)C)NC(=O)[C@H](Cc2c[nH]c3ccccc23)NC(=O)[C@@H](C(C)C)NC(=O)[C@H](C(C)C)NC(=O)[C@@H](C(C)C)NC(=O)[C@H](C)NC(=O)[C@@H](CC(C)C)NC(=O)[C@H](C)NC(=O)CNC(=O)[C@H](C(C)C)NC(=O)CCSSCCNC(=O)[C@H](Cc2c[nH]c3ccccc23)NC(=O)[C@@H](CC(C)C)NC(=O)[C@H](Cc2c[nH]c3ccccc23)NC(=O)[C@@H](CC(C)C)NC(=O)[C@H](Cc2c[nH]c3ccccc23)NC(=O)[C@@H](CC(C)C)NC(=O)[C@H](Cc2c[nH]c3ccccc23)NC(=O)[C@@H](C(C)C)NC(=O)[C@H](C(C)C)NC(=O)[C@@H](C(C)C)NC(=O)[C@H](C)NC1=O, the MIC (Pseudomonas aeruginosa) is reported as greater than 64 µg/mL, the MIC (Proteus mirabilis) is reported as greater than 64 µg/mL and the MIC (Enterococcus faecium) is reported as greater than 64 µg/mL. For the same compound, the MIC (Enterococcus faecalis) was greater than 64 µg/mL, the MIC (Staphylococcus aureus) was greater than 64 µg/mL and the MIC [7] was greater than 64 µg/mL. It also gave an IC50 (Plasmodium falciparum [2]) of 2.7 nM, an MIC (Klebsiella pneumoniae) greater than 64 µg/mL and an Activity [8] of less than 0.3 uS. The MIC (Escherichia coli) was greater than 64 µg/mL, the IC50 (Plasmodium falciparum [5]) was 2.9 nM and the MIC (Streptococcus pneumoniae) was greater than 64 µg/mL.
In the case of CC[C@H]1OC(=O)[C@H](C)[C@@H](O[C@H]2C[C@@](C)(OC)[C@@H](O)[C@H](C)O2)[C@H](C)[C@@H](O[C@@H]2O[C@H](C)C[C@H](N(C)C)[C@H]2O)[C@](C)(O)C[C@@H](C)C(=O)[C@H](C)[C@@H](O)[C@]1(C)O [ERYTHROMYCIN], the MIC (Pseudomonas aeruginosa) is reported as greater than 64 µg/mL, the MIC (Proteus mirabilis) is reported as greater than 64 µg/mL and the MIC (Enterococcus faecium) is reported as 2 to 4 µg/mL (≈ 2.73 to 5.45 µM). It also gave an MIC (Enterococcus faecalis) of 1 µg/mL (≈ 1.36 µM), an MIC (Staphylococcus aureus) of 0.5 µg/mL (≈ 0.681 µM) and an MIC [7] greater than 64 µg/mL. It also gave an MIC (Klebsiella pneumoniae) greater than 64 µg/mL, an MIC (Escherichia coli) greater than 32 µg/mL and an MIC (Streptococcus pneumoniae) greater than 64 µg/mL.
Work on CC(C)C[C@@H](NC(=O)[C@H](C)NC(=O)CNC(=O)[C@@H](NC(=O)CCS)C(C)C)C(=O)N[C@@H](C)C(=O)N[C@@H](C(=O)N[C@H](C(=O)N[C@@H](C(=O)N[C@@H](Cc1c[nH]c2ccccc12)C(=O)N[C@H](CC(C)C)C(=O)N[C@@H](Cc1c[nH]c2ccccc12)C(=O)N[C@H](CC(C)C)C(=O)N[C@@H](Cc1c[nH]c2ccccc12)C(=O)N[C@H](CC(C)C)C(=O)N[C@@H](Cc1c[nH]c2ccccc12)C(=O)NCCO)C(C)C)C(C)C)C(C)C yielded an Activity [6] of 0.7 uS, an Activity [8] of 42 uS and an MIC (Escherichia coli) greater than 64 µg/mL.

Reference: ChEMBL document CHEMBL3870335, “Bioactivity of topologically confined gramicidin A dimers” (Bioorg Med Chem, 2017)
